Data set [1] in a line: Membrane permeabilizing activity across 1-palmitoyl-2-oleoyl-sn-glycero-3-phosphocholine liposome assessed as K+ ion influx at compound to lipid ratio of 0.0001 to 0.001 after 18 hrs by BCECF staining-based fluorometric method. It is filed as physicochemical. The note with it: artificial membrane.
A short description of data set [2]: Membrane permeabilizing activity across ergosterol-containing 1-palmitoyl-2-oleoyl-sn-glycero-3-phosphocholine liposome assessed as K+ ion influx at compound to lipid ratio of 0.0001 to 0.001 after 18 hrs by BCECF staining-based fluorometric method. It is filed as physicochemical. Conditions: artificial membrane.
Data set [3] in a line: Membrane permeabilizing activity across cholesterol-containing 1-palmitoyl-2-oleoyl-sn-glycero-3-phosphocholine liposome assessed as K+ ion influx at compound to lipid ratio of 0.0001 to 0.001 after 18 hrs by BCECF staining-based fluorometric method. It is filed as physicochemical. The note with it: artificial membrane.
The nature of data set [4]: Membrane permeabilizing activity across 1-palmitoyl-2-oleoyl-sn-glycero-3-phosphocholine liposome assessed as K+ ion influx at compound to lipid ratio of 0.001 to 0.01 after 18 hrs by BCECF staining-based fluorometric method. It is filed as physicochemical. The note with it: artificial membrane.
A short description of data set [5]: Membrane permeabilizing activity across large unilamellar vesicle containing 1-palmitoyl-2-oleoyl-sn-glycero-3-phosphatidylglycerol and 30% 1-palmitoyl-2-oleoyl-sn-glycero-3-phosphocholine assessed as K+ ion influx at compound to lipid ratio of 0.001 to 0.01 after 18 hrs by BCECF staining-based fluorometric method. It is filed as physicochemical.
Data set [6] can be described thus: Membrane permeabilizing activity across large unilamellar vesicle containing 1-palmitoyl-2-oleoyl-sn-glycero-3-phosphatidylglycerol and 10% 1-palmitoyl-2-oleoyl-sn-glycero-3-phosphocholine assessed as K+ ion influx at compound to lipid ratio of 0.001 to 0.01 after 18 hrs by BCECF staining-based fluorometric method. It is filed as physicochemical.
Data set [7] in a line: Membrane permeabilizing activity across 1-palmitoyl-2-oleoyl-sn-glycero-3-phosphatidylglycerol liposome assessed as K+ ion influx at compound to lipid ratio of 0.001 to 0.01 after 18 hrs by BCECF staining-based fluorometric method. It is filed as physicochemical. The note with it: artificial membrane.
The subject of data set [8] is Lipid bilayer. The experiment in a line: Binding affinity to 1-palmitoyl-2-oleoyl-sn-glycero-3-phosphocholine bilayer membrane at 6.3 uM after 18 hrs by UV spectroscopy.
Data set [9] concerns Lipid bilayer. The data set can be described thus: Binding affinity to 1-palmitoyl-2-oleoyl-sn-glycero-3-phosphatidylglycerol bilayer membrane at 6.3 uM after 18 hrs by UV spectroscopy.
Data set [10] is described as follows: Binding affinity to bilayer membrane of 1-palmitoyl-2-oleoyl-sn-glycero-3-phosphatidylglycerol and 30% 1-palmitoyl-2-oleoyl-sn-glycero-3-phosphocholine at 6.3 uM after 18 hrs by UV spectroscopy.

The structures appear in SMILES notation. Active and inactive are the calls of the source. No cut-off for these calls is given here.

Regarding `C[C@@H]1[C@H](O)[C@@H](C)/C=C/C=C/C=C/C=C/C=C/C=C/C=C/[C@H](O[C@@H]2O[C@H](C)[C@@H](O)[C@H](N)[C@@H]2O)C[C@@H]2O[C@](O)(C[C@@H](O)C[C@@H](O)[C@H](O)CC[C@@H](O)C[C@@H](O)CC(=O)O[C@H]1C)C[C@H](O)[C@H]2C(=O)O` [AMPHOTERICIN B], the Activity entry is on record as “Not Active” in data set [1]; “Active” in data set [2]; “Not Active” in data set [3]; “Active” in [4]; “Active” in data set [5]; “Active” in data set [6]. Also, the Activity entry in data set [7] was “Not Active”. Further, the result (in the data set on Lipid bilayer [8]; in the data set on Lipid bilayer [9]; in data set [10]) was Active.
